Where “and” joins values, the source holds several entries; their conditions need not be identical. Equal entries are not always repeated. Where two headings read alike, the source gives them in different places.
Experiment: pharmacokinetics, plasma and brain, after IP dose in mice
Format: in vivo
Conditions: male C57BL/6 mice; for concentration at 0.083 hr / concentration at 0.25 hr / concentration at 0.5 hr / concentration at 1 hr / concentration at 2 hr / concentration at 3 hr / concentration at 4 hr / concentration at 8 hr: male, C57BL/6, mouse, ip, 50 mg/kg; for half-life: read-out: Terminal t1/2 (converted)
Experimental: Each time point is […], with 11 time points=33 animals. Each time point was done in triplicate (N=3). The brain and plasma from each animal was analyzed.
Formulation preparation: • IP: 5% DMAC+5% Solutol HS15+90% Saline • 50 mg/kg, 10 mL/kg
Analytical method: • Instrument: LCMSMS-6 (Agilent 6410, triple quadrupole) • Matrix: Mouse plasma and brain homogenate • Analyte(s): NCGC00248435-03 • Internal standard(s): Diclofenac • MS conditions: Positive, ESI • MRM detection • NCGC00248435-03: [M+H]+m/z 400.3→72.2 • Diclofenac: [M+H]+m/z 296.0→214.0
(§1) For plasma samples: An aliquot of 30 μL plasma sample was added with 100 μL ACN (including Diclofenac, 50 ng/mL) for protein precipitation. The mixture was vortexed for 2 min and centrifuged at 12000 rpm for 5 min. The 8 μL supernatant was injected into LC-MS/MS for analysis.
as §1, with “For brain” for “For plasma”, “samples: Brain sample was homogenized for 2 min with 3 volumes (v/w) of homogenizing solution.” for “samples:”, “μL brain homogenate” for “μL plasma”
The IP dosing solution was prepared in 5% DMAC+5% SolutolHS15+90% Saline. Brain was homogenized with 3 volumes (v/w) of PBS (pH7.4) and then analyzed with LC-MS/MS. The Brain concentration was corrected with a dilution factor of 4 as following: Brain concentration=Brain homogenate conc.×4, assuming 1 g wet brain equals to 1 mL. BQL=Below quantifiable limit of 1 ng/mL for NCGC00248435-03 in male C57BL/6 plasma and brain homogenate samples. NA=Not available.

clinical observation post dose (IP 50 mg/kg, all animals): Slight mobility reduction
duration of mobility reduction post dose (IP 50 mg/kg, all animals): 1 h
brain concentration Dose Normalized Mean (brain, 0.083 hr, IP 50 mg/kg): 0.024
brain Concentration Individual (brain, 0.083 hr, IP 50 mg/kg, 3 animals, listed as NCGC00248435-03, 50 mg/kg): 310 ng/g and 551 ng/g
brain concentration Dose Normalized Mean (brain, 0.25 hr, IP 50 mg/kg): 0.054
brain Concentration Individual (brain, 0.25 hr, IP 50 mg/kg, 3 animals, listed as NCGC00248435-03, 50 mg/kg): 1081 ng/g and 1330 ng/g
brain concentration Dose Normalized Mean (brain, 0.5 hr, IP 50 mg/kg): 0.236
brain Concentration Individual (brain, 0.5 hr, IP 50 mg/kg, 3 animals, listed as NCGC00248435-03, 50 mg/kg): 5013 ng/g and 3992 ng/g
brain concentration Dose Normalized Mean (brain, 1 hr, IP 50 mg/kg): 0.152
brain Concentration Individual (brain, 1 hr, IP 50 mg/kg, 3 animals, listed as NCGC00248435-03, 50 mg/kg): 2086 ng/g and 3367 ng/g
brain concentration Dose Normalized Mean (brain, 2 hr, IP 50 mg/kg): 0.089
brain Concentration Individual (brain, 2 hr, IP 50 mg/kg, 3 animals, listed as NCGC00248435-03, 50 mg/kg): 2463 ng/g and 1494 ng/g
brain concentration Dose Normalized Mean (brain, 3 hr, IP 50 mg/kg): 0.075
brain Concentration Individual (brain, 3 hr, IP 50 mg/kg, 3 animals, listed as NCGC00248435-03, 50 mg/kg): 1410 ng/g and 1152 ng/g
brain concentration Dose Normalized Mean (brain, 4 hr, IP 50 mg/kg): 0.017
brain Concentration Individual (brain, 4 hr, IP 50 mg/kg, 3 animals, listed as NCGC00248435-03, 50 mg/kg): 234 ng/g and 585 ng/g and 179 ng/g
brain concentration Dose Normalized Mean (brain, 8 hr, IP 50 mg/kg): 0.001
brain Concentration Individual (brain, 8 hr, IP 50 mg/kg, 3 animals, listed as NCGC00248435-03, 50 mg/kg): 13.5 ng/g
AUCbrain(AUClast) (brain, IP 50 mg/kg): 8458 ng·h/mL
concentration at 0.083 hr (brain, brain, 0.083 hr, 3 animals, read-out: brain Concentration Individual): 554 ng/g
concentration at 0.083 hr (brain, brain, 0.083 hr, read-out: brain concentration Mean): 472 ng/g and 1.18 µM
concentration at 0.25 hr (brain, brain, 0.25 hr, 3 animals, read-out: brain Concentration Individual): 853 ng/g
concentration at 0.25 hr (brain, brain, 0.25 hr, read-out: brain concentration Mean): 1090 ng/g and 2.72 µM
concentration at 0.5 hr (brain, brain, 0.5 hr, 3 animals, read-out: brain Concentration Individual): 5110 ng/g
concentration at 0.5 hr (brain, brain, 0.5 hr, read-out: brain concentration Mean): 4710 ng/g and 11.8 µM
concentration at 1 hr (brain, brain, 1 hr, 3 animals, read-out: brain Concentration Individual): 3650 ng/g
concentration at 1 hr (brain, brain, 1 hr, read-out: brain concentration Mean): 3040 ng/g and 7.59 µM
concentration at 2 hr (brain, brain, 2 hr, 3 animals, read-out: brain Concentration Individual): 1380 ng/g
concentration at 2 hr (brain, brain, 2 hr, read-out: brain concentration Mean): 1780 ng/g and 4.45 µM
concentration at 3 hr (brain, brain, 3 hr, 3 animals, read-out: brain Concentration Individual): 1930 ng/g
concentration at 3 hr (brain, brain, 3 hr, read-out: brain concentration Mean): 1500 ng/g and 3.75 µM
concentration at 4 hr (brain, brain, 4 hr, read-out: brain concentration Mean): 333 ng/g and 833 nM
concentration at 8 hr (brain, brain, 8 hr, 3 animals, read-out: brain Concentration Individual): 8.94 ng/g
concentration at 8 hr (brain, brain, 8 hr, read-out: brain concentration Mean): 12 ng/g and 30 nM
concentration at 0.083 hr (plasma, plasma, 0.083 hr, 3 animals, read-out: plasma Concentration Individual): 2090 ng/mL
concentration at 0.083 hr (plasma, plasma, 0.083 hr, read-out: plasma concentration Mean): 2620 ng/mL and 6.56 µM
concentration at 0.25 hr (plasma, plasma, 0.25 hr, 3 animals, read-out: plasma Concentration Individual): 6550 ng/mL
concentration at 0.25 hr (plasma, plasma, 0.25 hr, read-out: plasma concentration Mean): 5100 ng/mL and 12.8 µM
concentration at 0.5 hr (plasma, plasma, 0.5 hr, 3 animals, read-out: plasma Concentration Individual): 5960 ng/mL
concentration at 0.5 hr (plasma, plasma, 0.5 hr, read-out: plasma concentration Mean): 5790 ng/mL and 14.5 µM
concentration at 1 hr (plasma, plasma, 1 hr, 3 animals, read-out: plasma Concentration Individual): 4050 ng/mL
concentration at 1 hr (plasma, plasma, 1 hr, read-out: plasma concentration Mean): 3960 ng/mL and 9.91 µM
concentration at 2 hr (plasma, plasma, 2 hr, 3 animals, read-out: plasma Concentration Individual): 1130 ng/mL
concentration at 2 hr (plasma, plasma, 2 hr, read-out: plasma concentration Mean): 1020 ng/mL and 2.56 µM
concentration at 3 hr (plasma, plasma, 3 hr, 3 animals, read-out: plasma Concentration Individual): 321 ng/mL
concentration at 3 hr (plasma, plasma, 3 hr, read-out: plasma concentration Mean): 275 ng/mL and 688 nM
concentration at 4 hr (plasma, plasma, 4 hr, read-out: plasma concentration Mean): 100 ng/mL and 250 nM
concentration at 8 hr (plasma, plasma, 8 hr, 3 animals, read-out: plasma Concentration Individual): 1.83 ng/mL
concentration at 8 hr (plasma, plasma, 8 hr, read-out: plasma concentration Mean): 2.11 ng/mL and 5 nM
Kp (mouse, brain and plasma, IP 50 mg/kg, read-out: AUCbrain/AUCplasma): 1.05
AUC(0-inf) (mouse, brain, IP 50 mg/kg): 8470 ng·h/mL
Cmax (mouse, brain, IP 50 mg/kg): 4710 ng/mL
Tmax (mouse, brain, IP 50 mg/kg): 30 min
half-life (mouse, brain, IP 50 mg/kg): 47.6 min
AUC(0-inf) (mouse, plasma, IP 50 mg/kg): 8080 ng·h/mL
AUC(0-t) (mouse, plasma, IP 50 mg/kg): 8080 ng·h/mL
Cmax (mouse, plasma, IP 50 mg/kg): 5790 ng/mL
Tmax (mouse, plasma, IP 50 mg/kg): 30 min
half-life (mouse, plasma, IP 50 mg/kg): 42.8 min
plasma concentration Dose Normalized Mean (plasma, 0.083 hr, IP 50 mg/kg): 0.131
plasma Concentration Individual (plasma, 0.083 hr, IP 50 mg/kg, 3 animals, listed as NCGC00248435-03, 50 mg/kg): 3063 ng/mL and 2707 ng/mL
plasma concentration Dose Normalized Mean (plasma, 0.25 hr, IP 50 mg/kg): 0.255
plasma Concentration Individual (plasma, 0.25 hr, IP 50 mg/kg, 3 animals, listed as NCGC00248435-03, 50 mg/kg): 4892 ng/mL and 3849 ng/mL
plasma concentration Dose Normalized Mean (plasma, 0.5 hr, IP 50 mg/kg): 0.290
plasma Concentration Individual (plasma, 0.5 hr, IP 50 mg/kg, 3 animals, listed as NCGC00248435-03, 50 mg/kg): 6378 ng/mL and 5036 ng/mL
plasma concentration Dose Normalized Mean (plasma, 1 hr, IP 50 mg/kg): 0.198
plasma Concentration Individual (plasma, 1 hr, IP 50 mg/kg, 3 animals, listed as NCGC00248435-03, 50 mg/kg): 4574 ng/mL and 3252 ng/mL
plasma concentration Dose Normalized Mean (plasma, 2 hr, IP 50 mg/kg): 0.051
plasma Concentration Individual (plasma, 2 hr, IP 50 mg/kg, 3 animals, listed as NCGC00248435-03, 50 mg/kg): 1064 ng/mL and 870 ng/mL
plasma concentration Dose Normalized Mean (plasma, 3 hr, IP 50 mg/kg): 0.014
plasma Concentration Individual (plasma, 3 hr, IP 50 mg/kg, 3 animals, listed as NCGC00248435-03, 50 mg/kg): 255 ng/mL and 249 ng/mL
plasma concentration Dose Normalized Mean (plasma, 4 hr, IP 50 mg/kg): 0.005
plasma Concentration Individual (plasma, 4 hr, IP 50 mg/kg, 3 animals, listed as NCGC00248435-03, 50 mg/kg): 78.4 ng/mL and 148 ng/mL and 72.9 ng/mL
plasma concentration Dose Normalized Mean (plasma, 8 hr, IP 50 mg/kg): 0.000
plasma Concentration Individual (plasma, 8 hr, IP 50 mg/kg, 3 animals, listed as NCGC00248435-03, 50 mg/kg): 2.94 ng/mL and 1.55 ng/mL
Structure (SMILES): CC/C=C\C/C=C\C/C=C\C/C=C\C/C=C\C/C=C\CCC(=O)NCC(C)(C)O [Compound 1, (4Z,7Z,10Z,13Z,16Z,19Z)—N-(2-hydroxy-2-methylpropyl)docosa-4,7,10,13,16,19-hexaenamide]
brain concentration Dose Normalized Mean (brain, 12 hr, IP 50 mg/kg): BQL (Below quantifiable limit of 1 ng/mL for NCGC00248435-03 in male C57BL/6 plasma and brain homogenate samples)
brain concentration Mean (brain, 12 hr, IP 50 mg/kg): BQL (Below quantifiable limit of 1 ng/mL for NCGC00248435-03 in male C57BL/6 plasma and brain homogenate samples)
brain Concentration Individual (brain, 12 hr, IP 50 mg/kg, 3 animals): BQL (Below quantifiable limit of 1 ng/mL for NCGC00248435-03 in male C57BL/6 plasma and brain homogenate samples)
brain concentration Dose Normalized Mean (brain, 24 hr, IP 50 mg/kg): BQL (Below quantifiable limit of 1 ng/mL for NCGC00248435-03 in male C57BL/6 plasma and brain homogenate samples)
brain concentration Mean (brain, 24 hr, IP 50 mg/kg): BQL (Below quantifiable limit of 1 ng/mL for NCGC00248435-03 in male C57BL/6 plasma and brain homogenate samples)
brain Concentration Individual (brain, 24 hr, IP 50 mg/kg, 3 animals): BQL (Below quantifiable limit of 1 ng/mL for NCGC00248435-03 in male C57BL/6 plasma and brain homogenate samples)
plasma concentration Dose Normalized Mean (plasma, 12 hr, IP 50 mg/kg): BQL (Below quantifiable limit of 1 ng/mL for NCGC00248435-03 in male C57BL/6 plasma and brain homogenate samples)
plasma concentration Mean (plasma, 12 hr, IP 50 mg/kg): BQL (Below quantifiable limit of 1 ng/mL for NCGC00248435-03 in male C57BL/6 plasma and brain homogenate samples)
plasma Concentration Individual (plasma, 12 hr, IP 50 mg/kg, 3 animals): BQL (Below quantifiable limit of 1 ng/mL for NCGC00248435-03 in male C57BL/6 plasma and brain homogenate samples)
plasma concentration Dose Normalized Mean (plasma, 24 hr, IP 50 mg/kg): BQL (Below quantifiable limit of 1 ng/mL for NCGC00248435-03 in male C57BL/6 plasma and brain homogenate samples)
plasma concentration Mean (plasma, 24 hr, IP 50 mg/kg): BQL (Below quantifiable limit of 1 ng/mL for NCGC00248435-03 in male C57BL/6 plasma and brain homogenate samples)
plasma Concentration Individual (plasma, 24 hr, IP 50 mg/kg, 3 animals): BQL (Below quantifiable limit of 1 ng/mL for NCGC00248435-03 in male C57BL/6 plasma and brain homogenate samples)

— US9422308B2, “Derivatives of docosahexaenoylethanolamide and uses thereof” (The United States of America, as represented by the …, priority 2012, dated 2016)
